The values below come from patent publication US7722893B2, “Use of substitute 2,4-bis (alkylamino) pyrimidines or quinzolines as antimicrobials” (Ciba Specialty Chemicals Corporation, priority 2003, dated 2010).

The test system of one assay is P. gingivalis ATCC 3277. Kind of assay: MIC of a broadened organism spectrum: oral organisms. The class given is cell-based, Porphyromonas gingivalis. The following applies: 7-10 days at 37° C anaerobic; for MIC: Porphyromonas gingivalis, ATCC3277, Columbia bouillon, read-out: minimum inhibiting concentration MIC, oral organisms. An excerpt:
(§1) Determination of the Minimum Inhibiting Concentration MIC (ppm) of a Broadened Organism Spectrum: Oral Organisms
(§2) • Medium: thioglycolate bouillon with hemin and menadione Columbia bouillon with hemin and menadione for P. gingivalis and P. nigrescens • Dilution medium: the appropriate amount of the substances was pipetted directly into the medium. • Test organisms: Actinobacillus actinomycetemcomitans ATCC 43718 • Streptococcus gordonil ATCC 10558 • Streptococcus mutans ATCC 33402 • Actinomyces viscosus ATCC 43146 • Fusobacterium nucleatum subsp. polymorphum ATCC 10953 • Porphyromonas gingivalis ATCC 33277 • Prevotella nigrescens ATCC 33563 • Incubation: 7-10 days at 37° C anaerobic, or 24 hours aerobic with 10% CO2 for Streptococci and A. actinomycetemcomitans • Test solution: Stock solutions of all the test substances in ethanol at 1500 ppm (w/w) are used. Test Principle:
(§3) Bacteria are removed from blood agar plates using cotton wool buds and a suitable optical density (McFarland 0.5) is adjusted in an appropriate medium; that solution is used undiluted for F. nucleatum and P. nigrescens, and in a dilution of 1:20 for the other strains. 0.1 ml of bacterial culture is added per 2 ml of active ingredient solution and incubation is carried out as described above.

The next assay deals with S. gordonii ATCC 10558. The description is as above. The class given is cell-based, Streptococcus gordonil. The conditions noted are these: for MIC: Streptococcus gordonii, ATCC10558, 24 hours aerobic with 10% CO2, read-out: minimum inhibiting concentration MIC, oral organisms.
Source text: as §1, §2, §3

Assay [1] has as its system Streptococcus mutans ATCC 33402. The description is as above. Format: cell-based. The conditions noted are these: S. mutans ATCC 33402, 24 hours aerobic with 10% CO2; for MIC: Streptococcus mutans, ATCC33402, read-out: minimum inhibiting concentration MIC, oral organisms.
Source text: as §1, §2, §3

In assay [2] the test system is Actinomyces viscosus ATCC 43146. Described as above. Format: cell-based. The conditions noted are these: A. viscosus ATCC 43146, 7-10 days at 37° C anaerobic; for MIC: Actinomyces viscosus, ATCC43146, read-out: minimum inhibiting concentration MIC, oral organisms.
Source text: as §1, §2, §3

Assay [3] has as its system Actinobacillus actinomycetemcomitans ATCC 43718. Described as above. Format: cell-based. The following applies: A. actinomycetemcomitans ATCC 43718, 24 hours aerobic with 10% CO2; for MIC: Aggregatibacter actinomycetemcomitans, ATCC43718, read-out: minimum inhibiting concentration MIC, oral organisms.
Source text: as §1, §2, §3

Assay [4] has as its system Fusobacterium nucleatum subsp. polymorphum ATCC 10953. The description is as above. The class given is cell-based. The following applies: F. nucleatum subsp. polymorphum ATCC 10953, 7-10 days at 37° C anaerobic; for MIC: Fusobacterium nucleatum, ATCC10953, read-out: minimum inhibiting concentration MIC, oral organisms.
Source text: as §1, §2, §3

For assay [5], the system named is Prevotella nigrescens ATCC 33563. The assay is described as above. Format: cell-based. The following applies: P. nigrescens ATCC 33563, Columbia bouillon, 7-10 days at 37° C anaerobic; for MIC: Prevotella nigrescens, ATCC33563, read-out: minimum inhibiting concentration MIC, oral organisms.
Source text: as §1, §2, §3

Assay [6] has as its system C. minutissimum ATCC 23348. Kind of assay: MIC of a broadened organism spectrum (agar). The class given is cell-based. The following applies: 3 days incubation (Table 3a); for MIC: Corynebacterium minutissimum, ATCC23348, 72 h, read-out: minimum inhibiting concentration MIC. An excerpt:
(§4) Determination of the Minimum Inhibiting Concentration MIC [ppm] of a Broadened Organism Spectrum
(§5) • Medium: Casein/soybean flour peptone agar (Merck) • *Sabouraud 4% glucose agar (Merck) • Dilution medium: sterile 0.85% NaCl solution • Test organisms: Staphylococcus aureus ATCC 6853 and 9144 • Staphylococcus epidermidis ATCC 12228 • C. xerosis ATCC 373 ** • C. minutissimum ATCC 23348 • Proplonibacterium acnes ATCC 6919 • Escherichia coli ATCC 10536 and NCTC 8196 • Proteus vulgaris ATCC 6896 • Klebsiella pneumoniae ATCC 4352 • Salmonella choleraesuis ATCC 9184 • Pseudomonas aeruginosa ATCC 15442 • *Candida albicans ATCC 10231 • *Aspergillus niger ATCC 6275 • Incubation: 24 hours at 37° C. • *3 days at 28° C. • Test solution: 1% stock solutions of all the test substances in a suitable solvent are prepared and diluted in serial dilutions (1:10, 1:100 and 1:1000 dilution), where possible diluted to such an extent that the end concentrations in agar are from 500 ppm to 10 ppm. Test principle:
(§6) 0.3 ml of the dilution stage in question is mixed with 15 ml of still-liquid nutrient medium.
(§7) When the nutrient substrate has solidified, 10 μl portions of a suitable organism dilution of the test strains in 0.85% NaCl solution are spotted onto the agar medium: […]

Assay [7] concerns Staphylococcus aureus ATCC 9144. As to the kind of experiment: MIC of a broadened organism spectrum (agar). Format: cell-based. The conditions noted are these: for MIC: ATCC9144, 24 hours at 37° C., read-out: minimum inhibiting concentration MIC.
Source text: as §4, §5, §6, §7

In assay [8] the test system is Pseudomonas aeruginosa ATCC 15442. Kind of assay: MIC of a broadened organism spectrum (agar). The class given is cell-based. The following applies: for MIC: ATCC15442, 24 hours at 37° C., read-out: minimum inhibiting concentration MIC.
Source text: as §4, §5, §6, §7

Assay [9] relates to Staphylococcus aureus ATCC 6538. Kind of assay: MIC of a broadened organism spectrum (agar). Format: cell-based. The conditions noted are these: for MIC: ATCC6538, 24 hours at 37° C., read-out: minimum inhibiting concentration MIC.
Source text: as §4, §5, §6, §7

The test system of assay [10] is Aspergillus niger ATCC 6275. As to the kind of experiment: MIC of a broadened organism spectrum (agar). The following applies: Sabouraud 4% glucose agar, 3 days at 28° C.; for MIC: ATCC6275, 72 h, read-out: minimum inhibiting concentration MIC. The class given is cell-based.
Source text: as §4, §5, §6, §7

Assay [11] deals with Candida albicans ATCC 10231. As to the kind of experiment: MIC of a broadened organism spectrum (agar). The class given is cell-based. The following applies: Sabouraud 4% glucose agar, 3 days at 28° C.; for MIC: ATCC10231, 72 h, read-out: minimum inhibiting concentration MIC.
Source text: as §4, §5, §6, §7

For assay [12], the system named is Salmonella choleraesuis ATCC 9184. Kind of assay: MIC of a broadened organism spectrum (agar). Format: cell-based. The conditions noted are these: 24 hours at 37° C.; for MIC: Salmonella enterica, read-out: minimum inhibiting concentration MIC.
Source text: as §4, §5, §6, §7

Assay [13] deals with Escherichia coli ATCC 10536. Kind of assay: MIC of a broadened organism spectrum (agar). The class given is cell-based. The conditions noted are these: for MIC: ATCC10536, 24 hours at 37° C., read-out: minimum inhibiting concentration MIC.
Source text: as §4, §5, §6, §7

Assay [14] concerns Klebsiella pneumoniae ATCC 4352. As to the kind of experiment: MIC of a broadened organism spectrum (agar). The conditions noted are these: for MIC: ATCC4352, 24 hours at 37° C., read-out: minimum inhibiting concentration MIC. Format: cell-based.
Source text: as §4, §5, §6, §7

Assay [15] deals with Escherichia coli NCTC 8196. Kind of assay: MIC of a broadened organism spectrum (agar). The class given is cell-based. The conditions noted are these: for MIC: NCTC8196, 24 hours at 37° C., read-out: minimum inhibiting concentration MIC.
Source text: as §4, §5, §6, §7

For assay [16], the system named is Proteus vulgaris ATCC 6896. Kind of assay: MIC of a broadened organism spectrum (agar). The class given is cell-based. The following applies: for MIC: ATCC6896, 24 hours at 37° C., read-out: minimum inhibiting concentration MIC.
Source text: as §4, §5, §6, §7

Assay [17] concerns Staphylococcus epidermidis ATCC 12228. Kind of assay: MIC of a broadened organism spectrum (agar). Format: cell-based. The conditions noted are these: for MIC: ATCC12228, 24 hours at 37° C., read-out: minimum inhibiting concentration MIC.
Source text: as §4, §5, §6, §7

The subject of assay [18] is Propionibacterium acnes ATCC 6919. As to the kind of experiment: MIC of a broadened organism spectrum (agar). The class given is cell-based. The conditions noted are these: 3 days incubation under anaerobic conditions; for MIC: Cutibacterium acnes, ATCC6919, 72 h, read-out: minimum inhibiting concentration MIC.
Source text: as §4, §5, §6, §7

Another assay relates to C. xerosis ATCC 373. As to the kind of experiment: MIC of a broadened organism spectrum (agar). The class given is cell-based. The conditions noted are these: 3 days incubation; for MIC: Corynebacterium xerosis, ATCC373, 72 h, read-out: minimum inhibiting concentration MIC.
Source text: as §4, §5, §6, §7

Structures are written as SMILES.

As for `CCCCCCCCNc1cc(C)nc(NCCCCCCCC)n1` [PY5, N,N′-bis(2,4-dioctylamino)-6-methylpyrimidine], the “minimum inhibiting concentration MIC, oral organisms” value in the assay on P. gingivalis ATCC 3277 (Columbia bouillon) was 7.5 ppm; in the assay with S. gordonii ATCC 10558 (24 hours aerobic with 10% CO2), 15 ppm; in assay [1] it was 3.75 ppm; in assay [2], 3.75 ppm; in assay [3] it was above 15 ppm; in [4], above 15 ppm. In addition, the “minimum inhibiting concentration MIC, oral organisms” value in assay [5] came out at 15 ppm. The “minimum inhibiting concentration MIC” value in assay [6] is listed as 3.91 ppm; in assay [7] (24 hours at 37° C.), 3.91 ppm; in assay [8] (24 hours at 37° C.) it was above 1000 ppm; in [9] (24 hours at 37° C.), 3.91 ppm; in assay [10], above 1000 ppm; in [11] it was above 1000 ppm. In addition, the “minimum inhibiting concentration MIC” value in [12] is reported as above 1000 ppm; in assay [13] (24 hours at 37° C.), above 1000 ppm; in assay [14] (24 hours at 37° C.) it was 250 ppm; in assay [15] (24 hours at 37° C.), above 1000 ppm; in [16] (24 hours at 37° C.), above 1000 ppm; in assay [17] (24 hours at 37° C.) it was 3.91 ppm. Further, the “minimum inhibiting concentration MIC” value in [18] came out at 3.91 ppm; with C. xerosis ATCC 373, 7.81 ppm.

Turning to `Cc1cc(NCc2ccccc2)nc(NCc2ccccc2)n1` [PY8, N,N′-Bis(2,4-dibenzylamino)-6-methylpyrimidine], the MIC in the assay with P. gingivalis ATCC 3277 is 15 µg/mL; with S. gordonii ATCC 10558, above 15 µg/mL; in assay [1] it was above 15 µg/mL; in assay [2], 3.75 µg/mL; in assay [3] it was above 15 µg/mL; in assay [4], 15 µg/mL. Further, the MIC was 15 µg/mL in assay [5]; 15.6 µg/mL in assay [6]; 31.2 µg/mL in assay [7]; above 500 µg/mL in assay [8]; 31.2 µg/mL in [9]; 250 µg/mL in assay [10]. Moreover, the MIC in [11] is 250 µg/mL; in assay [12] it was 62.5 µg/mL; in assay [13], 62.5 µg/mL; in assay [14] it was 15.6 µg/mL; in [15], 31.2 µg/mL; in [16], above 500 µg/mL. The MIC amounted to 31.2 µg/mL in [17], 31.2 µg/mL in assay [18] and 7.8 µg/mL in the assay on C. xerosis ATCC 373.

In the case of `Cc1cc(NCCc2ccccc2)nc(NCCc2ccccc2)n1` [PY9, N,N′-Bis(2,4-diphenylethylamino)-6-methylpyrimidine], the MIC in the assay with P. gingivalis ATCC 3277 was 7.5 µg/mL; with S. gordonii ATCC 10558, 15 µg/mL; in assay [1], 15 µg/mL; in [2], 3.75 µg/mL; in assay [3], above 15 µg/mL; in assay [4], 15 µg/mL. Moreover, the MIC was 7.5 µg/mL in assay [5]; 3.9 µg/mL in assay [6]; 7.8 µg/mL in assay [7]; above 500 µg/mL in assay [8]; 7.8 µg/mL in assay [9]; 250 µg/mL in [10]. For the same molecule, the MIC was 62.5 µg/mL in [11]; 250 µg/mL in assay [12]; 250 µg/mL in assay [13]; 7.8 µg/mL in [14]; 15.6 µg/mL in [15]; above 500 µg/mL in [16]. Moreover, the MIC is 7.8 µg/mL in assay [17], 7.8 µg/mL in assay [18] and 1.95 µg/mL with C. xerosis ATCC 373.

Consider `CCCCCCCCNc1nc(C)cc(N2CCCC2)n1` [PY44], for which the MIC was 3.8 µg/mL in the assay on P. gingivalis ATCC 3277; 7.5 µg/mL in the assay with S. gordonii ATCC 10558; 7.5 µg/mL in [1]; 3.8 µg/mL in assay [2]; above 15 µg/mL in assay [3]; 3.8 µg/mL in [4]. Besides, the MIC was 3.8 µg/mL in assay [5]; 3.9 µg/mL in assay [6]; 7.8 µg/mL in assay [7]; above 500 µg/mL in assay [8]; 7.8 µg/mL in [9]; 500 µg/mL in [10]. The MIC is 250 µg/mL in assay [11]; 62.5 µg/mL in assay [12]; 62.5 µg/mL in [13]; 7.8 µg/mL in assay [14]; 15.6 µg/mL in assay [15]; above 500 µg/mL in [16]. Further, the MIC (in [17]; in [18]; in the assay with C. xerosis ATCC 373) was 3.9 µg/mL in each case.
